In article PMC8429549, “Glycosylation reduces the glycan-independent immunomodulatory effect of recombinant Orysata lectin in Drosophila S2 cells” (Scientific Reports, 2021):

Target: T1, BOry (recombinant Orysata from E. coli) (Oryza sativa, UniProt Q0JMY8)
T1 construct: gene SALT; pColdII, N-terminal poly-His tag kept; E. coli BL21; non-glycosylated
T1 sequence (Q0JMY8 1-145): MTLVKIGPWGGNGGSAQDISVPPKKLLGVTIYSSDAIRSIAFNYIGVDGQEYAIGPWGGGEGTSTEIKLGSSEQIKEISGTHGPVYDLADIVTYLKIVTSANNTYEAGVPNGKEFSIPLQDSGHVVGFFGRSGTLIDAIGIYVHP
Test: competition: FITC-BOry on blot of glycosylated YOry
Assay type: binding
Details: 20 mM mannose in PBS preincubated 20 min; FITC-labelled lectin; competitive with the N-glycan of YOry

OC[C@H]1OC(O)[C@@H](O)[C@@H](O)[C@@H]1O (stereo partly shown) [mannose]
competition: FITC-BOry on blot of glycosylated YOry: Preincubation of the FITC-BOry with mannose, abolished the binding to the glycosylated YOry
